# Laboratory results from patent US4849207A, “Porphyrin derivatives” (Nihon Medi-Physics Co., Ltd., priority 1985, dated 1989).
# Tests used:
# [1] = tested on: cancer cells of the pancreas; test: Laser irradiation to an extracted organ (excited fluorescent spectrum); assay type: in vivo, golden hamsters; conditions: golden hamster, 5 mg i.v., after 24 hours
# Experimental: Laser irradiation to an extracted organ (excited fluorescent spectrum):
# To each of golden hamsters (five animals being grouped) transplaned with nitrosoamine-induced cancer cells of the pancreas, DTPA-10EG PPB-Me (5 mg) diluted with 0.1M citrate buffer (1 ml) was administered intravenously 14 to 21 days after the transplantation, and cancer cells and other organs were extracted. To each of the organs as extracted, N2 -pulsed laser (N2 337 nm, 2 ns 400-1000 nm) was irradiated, and excited fluorescent spectrum was measured after 24 hours. Taking the peak wavelength of NADH at 470 nm as the standard (i.e. 1), the wavelength at 600 to 900 nm was calculated. The results are shown in Table 1, from which it is understood that a porphyrin-related substance has a remarkably selective affinity to cancer cells.
# [2] = tested on: inflammation (turpentine oil induced); conditions: hamster, in vivo, 4320 min
# Experimental: (§1) Scintigraphy was obtained 72 and 96 hours after the administration by the use of a gamma-camera equipped with a medium energy high resolution type collimator.
# [3] = tested on: inflammation (croton oil induced); test: Distribution in inflammation-induced rats, inflammation to tissue; assay type: in vivo, SD rats; conditions: SD rat, 72 hour post-injection; mean and s.d. for 3 animals
# Experimental: SD rats of about 200 grams in bodyweight received croton oil (0.1 ml) at the right hind leg subcutaneously to induce inflammation. […] The radioactivity level ratio between the inflamation and each tissue was determined.
# tumor = conditions: hamster, in vivo, 4320 min
# Experimental: as §1
compound,measurement,setting,value
"2,4-Bis[1-(In-diethylenetriamine-tetraacetic acid-acetyloxyethane)oxyethyl] Ga-deuteroporphyrin [In--bisDTPA--EG Ga--DP]",excited fluorescence at 600 to 900 nm relative to NADH peak at 470 nm (=1): Cancer,[1],0.40
same,excited fluorescence at 600 to 900 nm relative to NADH peak at 470 nm (=1): Kidney,[1],0.10
same,excited fluorescence at 600 to 900 nm relative to NADH peak at 470 nm (=1): Liver,[1],0.18
same,excited fluorescence at 600 to 900 nm relative to NADH peak at 470 nm (=1): Serum,[1],0.03
"2,4-Bis[1-(In-diethylenetriamine-tetraacetic acid-acetyloxyethane)oxyethyl] In-deuteroporphyrin [In--bisDTPA--EG In--DP]",excited fluorescence at 600 to 900 nm relative to NADH peak at 470 nm (=1): Cancer,[1],0.00
same,excited fluorescence at 600 to 900 nm relative to NADH peak at 470 nm (=1): Kidney,[1],0.05
same,excited fluorescence at 600 to 900 nm relative to NADH peak at 470 nm (=1): Liver,[1],0.25
same,excited fluorescence at 600 to 900 nm relative to NADH peak at 470 nm (=1): Lung,[1],0.05
same,excited fluorescence at 600 to 900 nm relative to NADH peak at 470 nm (=1): Serum,[1],0.05
2-[1-(In-Diethylenetriamine-tetraacetic acid-acetyloxyethane)oxyethyl]-4-[1-(2-hydroxyethyl)oxyethyl] Ga-deuteroporphyrin [In--monoDTPA--EG Ga--DP],excited fluorescence at 600 to 900 nm relative to NADH peak at 470 nm (=1): Cancer,[1],0.50
same,excited fluorescence at 600 to 900 nm relative to NADH peak at 470 nm (=1): Kidney,[1],0.05
same,excited fluorescence at 600 to 900 nm relative to NADH peak at 470 nm (=1): Liver,[1],0.03
same,excited fluorescence at 600 to 900 nm relative to NADH peak at 470 nm (=1): Lung,[1],0.14
same,excited fluorescence at 600 to 900 nm relative to NADH peak at 470 nm (=1): Serum,[1],0.02
2-[1-(In-Diethylenetriamine-tetraacetic acid-acetyloxyethane)oxyethyl]-4-[1-(2-hydroxyethyl)oxyethyl] In-deuteroporphyrin [In--monoDTPA--EG In--DP],excited fluorescence at 600 to 900 nm relative to NADH peak at 470 nm (=1): Cancer,[1],0.30
same,excited fluorescence at 600 to 900 nm relative to NADH peak at 470 nm (=1): Kidney,[1],0.00
same,excited fluorescence at 600 to 900 nm relative to NADH peak at 470 nm (=1): Liver,[1],0.07
same,excited fluorescence at 600 to 900 nm relative to NADH peak at 470 nm (=1): Lung,[1],0.09
same,excited fluorescence at 600 to 900 nm relative to NADH peak at 470 nm (=1): Serum,[1],0.24
2-[1-(In-Diethylenetriamine-tetraacetic acid-acetyloxyethane)oxyethyl]-4-[1-(2-hydroxyethyl)oxyethyl] deuteroporphyrin dimethyl ester [In--DTPA--EG DP--Me],excited fluorescence at 600 to 900 nm relative to NADH peak at 470 nm (=1): Cancer,[1],0.83
same,excited fluorescence at 600 to 900 nm relative to NADH peak at 470 nm (=1): Kidney,[1],0.15
same,excited fluorescence at 600 to 900 nm relative to NADH peak at 470 nm (=1): Liver,[1],0.36
same,excited fluorescence at 600 to 900 nm relative to NADH peak at 470 nm (=1): Lung,[1],0.09
same,excited fluorescence at 600 to 900 nm relative to NADH peak at 470 nm (=1): Serum,[1],0.71
"C=Cc1c(C)c2cc3nc(c4c5[nH]c(cc6nc(cc1[nH]2)C(C)=C6CC)c(C)c5C(=O)C4C(=O)OC)C(CCC(=O)OCCOC(=O)CN(CCN(CCN(CC(=O)O)CC(=O)O)CC(=O)O)CC(=O)O)C3C (stereo not shown) [DTPA--7EG PPB, Ethylene glycol mono-diethylenetriaminetetraacetic acid-acetate mono-7c-pheophorbate]",excited fluorescence at 600 to 900 nm relative to NADH peak at 470 nm (=1): Cancer,[1],0.53
same,excited fluorescence at 600 to 900 nm relative to NADH peak at 470 nm (=1): Kidney,[1],0.32
same,excited fluorescence at 600 to 900 nm relative to NADH peak at 470 nm (=1): Liver,[1],0.33
same,excited fluorescence at 600 to 900 nm relative to NADH peak at 470 nm (=1): Lung,[1],0.30
same,excited fluorescence at 600 to 900 nm relative to NADH peak at 470 nm (=1): Serum,[1],0.31
"C=Cc1c(C)c2cc3nc(c4c5[nH]c(cc6nc(cc1[nH]2)C(C)=C6CC)c(C)c5C(=O)C4)C(CCC(=O)OCCOC(=O)CN(CCN(CCN(CC(=O)O)CC(=O)O)CC(=O)O)CC(=O)O)C3C (stereo not shown) [DTPA--7EG pyroPPB, Ethylene glycol mono-diethylenetriaminetetraacetic acid-acetate mono-7c-pyropheophorbate]",excited fluorescence at 600 to 900 nm relative to NADH peak at 470 nm (=1): Cancer,[1],2.20
same,excited fluorescence at 600 to 900 nm relative to NADH peak at 470 nm (=1): Kidney,[1],0.25
same,excited fluorescence at 600 to 900 nm relative to NADH peak at 470 nm (=1): Liver,[1],0.87
same,excited fluorescence at 600 to 900 nm relative to NADH peak at 470 nm (=1): Lung,[1],1.23
same,excited fluorescence at 600 to 900 nm relative to NADH peak at 470 nm (=1): Serum,[1],0.39
"C=Cc1c(C)c2cc3nc(c4c5[nH]c(cc6nc(cc1[nH]2)C(C)=C6CC)c(C)c5C(=O)C4C(=O)OCCOC(=O)CN(CCN(CCN(CC(=O)O)CC(=O)O)CC(=O)O)CC(=O)O)C(CCC(=O)O)C3C (stereo not shown) [DTPA--10EG PPB, Ethylene glycol mono-diethylenetriamine-tetraacetic acid-acetate mono-10b-pheophorbate]",excited fluorescence at 600 to 900 nm relative to NADH peak at 470 nm (=1): Cancer,[1],1.20
same,excited fluorescence at 600 to 900 nm relative to NADH peak at 470 nm (=1): Kidney,[1],0.43
same,excited fluorescence at 600 to 900 nm relative to NADH peak at 470 nm (=1): Liver,[1],0.77
same,excited fluorescence at 600 to 900 nm relative to NADH peak at 470 nm (=1): Lung,[1],0.45
same,excited fluorescence at 600 to 900 nm relative to NADH peak at 470 nm (=1): Serum,[1],0.52
"C=Cc1c(C)c2cc3nc(c4c5[nH]c(cc6nc(cc1[nH]2)C(C)=C6CC)c(C)c5C(=O)C4C(=O)OCCOC(=O)CN(CCN(CCN(CC(=O)O)CC(=O)O)CC(=O)O)CC(=O)O)C(CCC(=O)OC)C3C (stereo not shown) [DTPA--10EG PPB--Me, Ethylene glycol monodiethylenetriaminetetraacetic acid-acetate mono-10b-methylpheophorbate]",excited fluorescence at 600 to 900 nm relative to NADH peak at 470 nm (=1): Cancer,[1],2.73
same,excited fluorescence at 600 to 900 nm relative to NADH peak at 470 nm (=1): Kidney,[1],0.37
same,excited fluorescence at 600 to 900 nm relative to NADH peak at 470 nm (=1): Liver,[1],0.69
same,excited fluorescence at 600 to 900 nm relative to NADH peak at 470 nm (=1): Lung,[1],0.47
same,excited fluorescence at 600 to 900 nm relative to NADH peak at 470 nm (=1): Serum,[1],0.53
"O=C([O-])CC(O)(CC(=O)[O-])C(=O)[O-].[67Ga+3] [Gallium (^67 Ga) citrate, gallium (^67 Ga) citrate]",Inflammation to tissue concentration ratio: Blood,[2],17.55
same,Inflammation to tissue concentration ratio: Heart,[2],3.10
same,Inflammation to tissue concentration ratio: Kidney,[2],0.36
same,Inflammation to tissue concentration ratio: Liver,[2],0.33
same,Inflammation to tissue concentration ratio: Lung,[2],2.23
same,Inflammation to tissue concentration ratio: Muscle,[2],25.15
same,Inflammation to tissue concentration ratio: Spleen,[2],0.68
same,Inflammation to tissue concentration ratio: Blood,[3],21.61 ± 6.47
same,Inflammation to tissue concentration ratio: Heart,[3],7.49 ± 3.37
same,Inflammation to tissue concentration ratio: Kidney,[3],5.04 ± 6.35
same,Inflammation to tissue concentration ratio: Liver,[3],0.69 ± 0.17
same,Inflammation to tissue concentration ratio: Lung,[3],5.41 ± 0.71
same,Inflammation to tissue concentration ratio: Muscle,[3],12.81 ± 4.61
same,Inflammation to tissue concentration ratio: Spleen,[3],0.64 ± 0.11
same,Tumor to tissue concentration ratio: Blood,tumor,9.89
same,Tumor to tissue concentration ratio: Heart,tumor,1.73
same,Tumor to tissue concentration ratio: Kidney,tumor,0.20
same,Tumor to tissue concentration ratio: Liver,tumor,0.18
same,Tumor to tissue concentration ratio: Lung,tumor,1.26
same,Tumor to tissue concentration ratio: Muscle,tumor,14.20
same,Tumor to tissue concentration ratio: Spleen,tumor,0.39
"CCC1=C(C)c2cc3[nH]c(cc4nc(c5c6[nH]c(cc1n2)c(C)c6C(=O)C5C(=O)OCCOC(=O)C1C(=O)c2c(C)c5cc6nc(cc7[nH]c(cc8nc(c1c2[nH]5)C(CCC(=O)O)C8C)c(C)c7C(C)I)C(C)=C6CC)C(CCC(=O)O)C4C)c(C)c3C(C)I (stereo not shown) [I2 PPB Dimer, Bis[2-desethenyl-2-(1-iodoethyl)pheophobide]ethylene glycol diester]",excited fluorescence at 600 to 900 nm relative to NADH peak at 470 nm (=1): Cancer,[1],0.82
same,excited fluorescence at 600 to 900 nm relative to NADH peak at 470 nm (=1): Kidney,[1],0.07
same,excited fluorescence at 600 to 900 nm relative to NADH peak at 470 nm (=1): Liver,[1],0.31
same,excited fluorescence at 600 to 900 nm relative to NADH peak at 470 nm (=1): Lung,[1],0.20
same,excited fluorescence at 600 to 900 nm relative to NADH peak at 470 nm (=1): Serum,[1],1.58
